Laboratory results from patent US9333205B2, “Isoxazolo-quinazolines as modulators of protein kinase activity” (NERVIANO MEDICAL SCIENCES S.R.L., priority 2010, dated 2016).

Key:
[1] = target: MPS1 (Homo sapiens (Human), UniProt P33981); experiment: Biochemical trans-phosphorylation (Dowex, 33P-γ-ATP) assay for inhibitors of MPS1 kinase activity; details: MPS1 5 nM, 15 microM ATP, P38-βtide 200 microM
Description: Cloning, Expression and Purification of Recombinant MPS1 Full Length Protein.
MPS1 full length (corresponding to residues 2-857 of the full length sequence, see Swiss-Prot accession number P33981) was PCR amplified from the full-length human MPS1 gene present in house as clone pGEX4t_MPS1.
Baculoviruses were generated by cotransfecting Sf9 insect cells with the expression vector and the viral DNA using the BaculoGold® transfection kit (Pharmingen). Viral supernatant was recovered after 5 days and subjected to 3 rounds of amplification to increase viral titer. Recombinant protein was produced by infecting High5 insect cells. After 72 hours of infection at 21° C., cells were recovered, pelletted and freezed at −80° C. For purification of recombinant protein, pellet was thawed, resuspended in lysis buffer (PBS, NaCl 150 mM, Glycerol 10%, CHAPS 0.1%, DTT 20 mM, protease and phosphatase inhibitors) and lysed by Gaulin. Lysate was cleared by centrifugation and loaded on a GST affinity column. After extensive wash, recombinant protein was cleaved by a specific protease and eluted by incubation.
To get a fully activated enzyme, the protein was then subjected to auto-phosphorylation in presence of ATP 1 mM at 25° C. for 2 hours in kinase buffer (Hepes pH7.5 50 mM, MgCl2 2.5 mM, MnCl2 1 mM, DTT 1 mM, phosphatase inhibitors); ATP was then removed whit a desalting column.
(§1) Biochemical Assay for Inhibitors of MPS1 and PERK Kinase Activity
(§2) The inhibitory activity of putative kinase inhibitors and the potency of selected compounds were determined using a trans-phosphorylation assay.
Specific peptide or protein substrates are trans-phosphorylated by their specific ser-thr or tyr kinase in the presence of ATP traced with ^33P-γ-ATP, and in the presence of their own optimal buffer and cofactors. […]
Supernatant is subsequently withdrawn and transferred into a counting plate, then evaluated by β-counting. […]

[2] = target: PERK (Homo sapiens (Human), UniProt Q9NZJ5); experiment: Biochemical trans-phosphorylation (Dowex, 33P-γ-ATP) assay for inhibitors of PERK kinase activity; details: PERK 8 nM, 52 microM ATP, eIF2alfa-tide 300 microM
Description: Cloning, Expression and Purification of Recombinant PERK Cytoplasmic Domain Protein.
PERK cytoplasmic domain (corresponding to residues 540-1115; Swiss-Prot accession number Q9NZJ5) was PCR amplified using the following forward oligonucleotide:
Recombinant protein was produced in BL21(DE3)pLysS strain, in auto-induction medium, at 21° C. for 24 hours (see F. W. Studier, “Protein production by auto-induction in high density shaking cultures”, Protein Expression and Purification (2005) vol. 41:207-234). The cells were recovered by centrifugation, and the pellet frozen at −80° C. For purification of recombinant protein, pellet was thawed, resuspended in lysis buffer (Tris-HCl 50 mM pH 7.6, NaCl 250 mM, Glycerol 10%, CHAPS 0.2%, Imidazole 5 mM, protease and phosphatase inhibitors) and lysed by Gaulin homogenizer. Lysate was cleared by centrifugation and loaded on a Ni-NTA and the eluate on a GST affinity column. After extensive wash, recombinant protein was cleaved by a specific protease and eluted. Recombinant PERK cytoplasmic domain obtained by this protocol was >85% pure by coomassie stained SDS-PAGE.
as §1, §2
Specific peptide or protein substrates are trans-phosphorylated by their specific ser-thr or tyr kinase in the presence of ATP traced with ^33P-γ-ATP, and in the presence of their own optimal buffer and cofactors.
At the end of the phosphorylation reaction, more than 98% unlabeled ATP and radioactive ATP is captured by an excess of the ion exchange dowex resin; the resin then settles down to the bottom of the reaction plate by gravity.
Supernatant is subsequently withdrawn and transferred into a counting plate, then evaluated by β-counting.
The buffer for PERK assay was composed of HEPES 50 mM, at pH 7.5 with 3 mM MgCl2, 1 mM DTT, 3 microM Na3VO4, and 0.2 mg/mL BSA […]

Sequence of MPS1 (P33981 2-857): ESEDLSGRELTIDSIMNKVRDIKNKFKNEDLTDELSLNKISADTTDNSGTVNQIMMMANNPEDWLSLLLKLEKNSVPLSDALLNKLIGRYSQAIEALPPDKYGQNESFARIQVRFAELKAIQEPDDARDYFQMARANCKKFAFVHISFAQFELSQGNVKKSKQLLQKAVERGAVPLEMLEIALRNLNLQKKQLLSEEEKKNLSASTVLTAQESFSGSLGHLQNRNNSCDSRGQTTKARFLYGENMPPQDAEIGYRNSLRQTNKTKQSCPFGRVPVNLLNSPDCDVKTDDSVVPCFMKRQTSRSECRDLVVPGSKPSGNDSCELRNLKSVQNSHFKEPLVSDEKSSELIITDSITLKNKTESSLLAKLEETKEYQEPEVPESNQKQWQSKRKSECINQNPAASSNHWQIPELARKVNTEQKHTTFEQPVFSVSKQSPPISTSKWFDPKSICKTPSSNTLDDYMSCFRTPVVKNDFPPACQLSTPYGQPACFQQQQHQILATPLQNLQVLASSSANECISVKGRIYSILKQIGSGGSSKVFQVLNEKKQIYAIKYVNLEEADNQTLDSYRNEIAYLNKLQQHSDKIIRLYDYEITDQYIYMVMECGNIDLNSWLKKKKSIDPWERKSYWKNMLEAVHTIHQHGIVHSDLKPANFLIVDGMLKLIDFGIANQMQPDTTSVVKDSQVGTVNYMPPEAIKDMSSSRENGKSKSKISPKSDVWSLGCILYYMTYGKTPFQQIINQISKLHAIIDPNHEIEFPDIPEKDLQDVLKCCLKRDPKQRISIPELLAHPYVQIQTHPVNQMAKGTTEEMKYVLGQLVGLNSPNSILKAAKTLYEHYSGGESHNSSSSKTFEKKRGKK
Sequence of PERK (Q9NZJ5 540-1115): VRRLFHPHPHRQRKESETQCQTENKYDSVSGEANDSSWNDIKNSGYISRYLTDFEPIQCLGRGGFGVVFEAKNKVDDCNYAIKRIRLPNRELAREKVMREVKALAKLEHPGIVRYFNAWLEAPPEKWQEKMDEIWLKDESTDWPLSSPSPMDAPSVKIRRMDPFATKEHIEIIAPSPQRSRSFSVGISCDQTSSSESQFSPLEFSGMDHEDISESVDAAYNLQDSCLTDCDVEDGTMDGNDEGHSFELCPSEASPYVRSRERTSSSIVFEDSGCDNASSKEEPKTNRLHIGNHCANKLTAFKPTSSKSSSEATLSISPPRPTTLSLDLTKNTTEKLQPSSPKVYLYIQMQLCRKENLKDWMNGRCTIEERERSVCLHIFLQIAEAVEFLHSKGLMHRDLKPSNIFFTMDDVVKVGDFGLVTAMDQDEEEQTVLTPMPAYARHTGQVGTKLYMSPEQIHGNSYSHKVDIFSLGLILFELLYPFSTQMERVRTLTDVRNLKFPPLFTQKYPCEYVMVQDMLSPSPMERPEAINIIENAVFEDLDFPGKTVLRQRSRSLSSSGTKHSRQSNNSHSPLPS

COc1cc(C(=O)NC2CCN(C)CC2)ccc1Nc1ncc2c(n1)-c1noc(C(N)=O)c1C(C)(C)C2 [Compound 30, 8-({2-methoxy-4-[(1-methylpiperidin-4-yl)carbamoyl]phenyl}amino)-4,4-dimethyl-4,5-dihydroisoxazolo[4,3-h]quinazoline-3-carboxamide]
IC50 [1]: 680 nM
IC50 [2]: 400 nM

COc1cc(C(=O)NC2CCN(C)CC2)ccc1Nc1ncc2c(n1)-c1onc(C(N)=O)c1CC2(C)C [Compound 55, 8-({2-methoxy-4-[(1-methylpiperidin-4-yl)carbamoyl]phenyl}amino)-5,5-dimethyl-4,5-dihydroisoxazolo[4,5-h]quinazoline-3-carboxamide]
IC50 [1]: 3440 nM
IC50 [2]: 510 nM

COc1cc(C(=O)NC2CCN(C)CC2)ccc1Nc1ncc2c(n1)-c1onc(C(=O)N[C@@H](CN)c3ccccc3)c1CC2(C)C [Compound 61, N-[(1R)-2-amino-1-phenylethyl]-8-({2-methoxy-4-[(1-methylpiperidin-4-yl)carbamoyl]phenyl}amino)-5,5-dimethyl-4,5-dihydroisoxazolo[4,5-h]quinazoline-3-carboxamide]
IC50 [1]: 360 nM
IC50 [2]: 240 nM
